Where two headings read alike, the source gives them in different places. A value given as a limit tells only on which side of the number the result lay.

Data set [1] is described as follows: Influence on pancreatic secretion of the narcotized rat. The format is in vivo, rat (male Sprague-Dawley). Conditions: in vivo, LD50 mouse i.p. / ED50 rat i.d. From the text: (§1) Male Sprague-Dawley rats (body weight from 250 to 300 g) are narcotized with 1.2 g/kg urethane i.m. Then the abdominal cavity is opened medially, the bile duct is ligatured shortly above the place where it leads into the duodenum and also near to the hepatic duct, and both sections are catheterized towards the liver.
(§2) As in the rat all the pancreatic ducts lead out into the central section of the bile duct; it is possible in this way to discharge the pancreatic secretion separately from the distal (ligatured) section and the bile separately from the proximal section of the bile duct.
(§3) The quantities of pancreatic juice and bile juice obtained are measured at intervals of 30 minutes over a period from 2 hours before to 3 hours after the intraduodenal (V. jugularis externa) administration of the compounds to be tested (quantity of liquid administered 5 ml/kg).
(§4) The body temperature of the animals is maintained at 36° to 38° C. by means of electric blankets and radiation; the temperature is monitored rectally.
(§5) The liquid volumes of the 30-minute fractions after the administration of the substance are related in each case to the quantity of bile or pancreatic juice secreted prior to the application of the substance (=100%, mean of the last two measurements). The maximum percentage increase in the pancreatic or bile secretion is represented in dependence upon dose, and from this the ED50 is determined by interpolation.

Data set [2] relates to pancreatic secretion. Described as above. The format is in vivo, rat (male Sprague-Dawley). Conditions: 0.5 h.
Text: as §1, §2, §3, §4, §5

Data set [3] in a line: Determination of toxicity (lethal action on the mouse after intraperitoneal application). The note with it: in vivo, ip. The format is in vivo. On the procedure: The toxicity investigations are carried out on female NMRI mice (body weight 22 to 26 g). The animals (5 animals per dose) are given food and water ad lib. Different doses of the substances are administered intraperitoneally. The duration of observation is 14 days. The LD50, i.e. the dose at which 50% of the animals die, is determined graphically from the dose/effect curve.

Data set [4] in a line: Antihepatotoxic effect: duration of hexobarbital sleep of the rat after liver damage by CCl4. Conditions: rat, in vivo. As to the method: (§6) The compounds to be tested are administered 1 hour prior to the administration of CCl4 orally in a liquid volume of 10 ml/kg.
(§7) The antihepatotoxic effect of the compounds to be tested (sodium salts in aqueous solution) is determined by the reduction of the prolongation of sleeping period caused by the CCl4 liver cell damage in the groups treated, as compared with the prolongation of the sleeping period of the CCl4 control group (=100%). […]

The subject of data set [5] is liver damage by CCl4. The data set is described as above. The note with it: Rattus norvegicus, po; for ED25: read-out: ED25 antihepatotoxic effect (shortens hexobarbital narcosis by 25%). On the procedure:
as §6, §7

Setting [6] is: Table I, read-out: TQ (LD50/ED50), pancreatic secretion.
The mark [7] stands for this setting: Rattus norvegicus, read-out: ED50 pancreatic secretion (dose which brings about an increase in the pancreatic secretion by a maximum of 50%).
[8] abbreviates: TQ (LD50/ED50), antihepatotoxic effect, LD50 mouse i.p. / ED50 rat p.o., Table III.
Setting [9] is: read-out: ED50 antihepatotoxic effect (dose which shortens the hexobarbital narcosis by 50%).
Where [10] appears, read: Table VII, read-out: TQ [LD50/ED50], pancreatic secretion.
[11] abbreviates: narcotized rat, i.d., liquid volume, 30 min fraction, Table VII, read-out: ED50 pancreatic secretion (dose which brings about an increase in pancreatic secretion of a maximum of 50%).
Setting [12] is: TQ LD50/ED25, antihepatotoxic effect, LD50 mouse i.p. / ED25 rat p.o., Table V.
Where [13] appears, read: Table X, read-out: TQ LD50/ED50, pancreatic secretion.
The mark [14] stands for this setting: narcotized rat, i.d., liquid volume, 30 minute fraction, Table X, read-out: ED50 pancreatic secretion (dose which brings about an increase in pancreatic secretion by a maximum of 50%).

For `O=C(O)CCCN(C(=O)c1ccc(Cl)cc1)C12CC3CC(CC(C3)C1)C2` [Serial No. 6, N-(p-chloro)benzoyl-4-(1-adamantyl)aminobutyric acid], the selectivity ratio in data set [1] (setting [6]) came to 200. For the same compound, the ED50 in data set [2] (setting [7]) came out at 1 mg/kg. The compound further showed a median lethal dose (LD50) at 336 h in data set [3] (mouse, Table I) of 200 mg/kg.

In the case of `CC(C)(C)CC(C)(C)N(CCCC(=O)O)C(=O)c1ccc(Cl)cc1` [Serial No. 7, N-(p-chloro)benzoyl-4-[(1,1,3,3-tetramethylbutyl)amino]butyric acid], the selectivity ratio in data set [1] (setting [6]) turned out to be 110. For the same compound, in data set [2] (setting [7]), the ED50 is 2 mg/kg. In addition, the LD50 at 336 h in data set [3] (mouse, Table I) amounted to 220 mg/kg.

Consider `C#CC1(N(CCCC(=O)O)C(C)=O)CCCCC1` [Serial No. 8, N-acetyl-4-[(1-ethynylcyclohexyl-1)-amino]butyric acid], for which the selectivity ratio in data set [1] (setting [6]) was more than 100. Also, the ED50 in data set [2] (setting [7]) was determined as 10 mg/kg. This compound also showed an LD50 at 336 h in data set [3] (mouse, Table I) of more than 1000 mg/kg.

For the compound `O=C(O)CCCN(C(=O)c1ccc(Cl)cc1)C(c1ccccc1)c1ccccc1` [Serial No. 12, N-(p-chloro)benzoyl-4-benzhydrylaminobutyric acid], the selectivity ratio in data set [1] (setting [6]) is approximately 2500; in data set [4] (setting [8]), 25. The ED50 in data set [2] (setting [7]) is approximately 0.1 mg/kg; in data set [5] (setting [9]) it was 10 mg/kg. For the same compound, the LD50 at 336 h in data set [3] (mouse, Table I) was 250 mg/kg.

For the compound `CC(c1ccccc1)N(CCCCCC(=O)O)C(=O)c1ccc(Cl)cc1` (stereo not shown) [Serial No. 13, N-(p-chloro)benzoyl-6-(1-phenylethylamino)caproic acid], the selectivity ratio in data set [1] (setting [6]) was found to be 110. In data set [2] (setting [7]), the median effective dose (ED50) came out at 2 mg/kg. The LD50 at 336 h in data set [3] (mouse, Table I) stood at 220 mg/kg.

As for `O=C(O)CCCN(Cc1ccccc1)C(=O)c1ccc(Cl)cc1` [Serial No. 15, N-(p-chloro)benzoyl-4-benzylaminobutyric acid], the selectivity ratio in data set [1] (setting [6]) is 233. Further, the ED50 in data set [2] (setting [7]) was 1.5 mg/kg. Also, in data set [3] (mouse, Table I), the LD50 at 336 h turned out to be 350 mg/kg.

On to `O=C(O)CCCN(C(=O)c1ccc(Cl)cc1)C1CCCCCCC1` [Serial No. 18, N-(p-chloro)benzoyl-4-cyclooctylaminobutyric acid], for which the selectivity ratio was determined as 60 in data set [1] (setting [6]) and 18.8 in data set [4] (setting [8]). Besides, the ED50 in data set [2] (setting [7]) is 2.5 mg/kg; in data set [5] (setting [9]) it was 8 mg/kg. In data set [3] (mouse, Table I), this compound returned an LD50 at 336 h of 150 mg/kg.

As to `COc1ccc(Cl)cc1C(=O)N(CCCC(=O)O)c1ccccc1-c1ccccc1` [Serial No. 33, 4-[2-methoxy-5-chloro-N-(biphenyl-2-yl)benzamido]butyric acid], the selectivity ratio in data set [1] (setting [10]) turned out to be 85. Moreover, in data set [2] (setting [11]), the ED50 came out at 2 mg/kg. The compound also displayed an LD50 at 336 h in data set [3] (mouse i.p., Table VII) of 170 mg/kg.

Consider `CC(C)C(=O)N(CCCCCC(=O)O)c1ccccc1-c1ccccc1` [Serial No. 34, 6-[N-(biphenyl-2-yl)isobutyramido]caproic acid], for which the selectivity ratio in data set [4] (setting [12]) was found to be 8.7. Moreover, the ED25 in data set [5] is less than 30 mg/kg. The LD50 at 336 h in data set [3] (mouse i.p., Table V) turned out to be 260 mg/kg.

As for `O=C(O)CCCN(C(=O)c1ccc(Cl)cc1)c1ccc(C2CCCCC2)cc1` [Serial No. 37, 4-[p-chloro-N-(1',2',3',4',5',6'-hexahydrobiphenyl-4-yl)benzamido]butyric acid], the selectivity ratio in data set [1] (setting [10]) was approximately 100; in data set [4] (setting [12]), not below 15. Besides, in data set [2] (setting [11]), the ED50 is 1.5 mg/kg. In data set [5], the ED25 was not above 10 mg/kg. The same compound returned an LD50 at 336 h in data set [3] (mouse i.p., Table V) of approximately 150 mg/kg.

As for `CC(=O)N(CCCC(=O)O)c1cccc2ccccc12` [Serial No. 39, 4-[N-(α-naphthyl)acetamido]butyric acid], the selectivity ratio in data set [1] (setting [13]) was approximately 500; in data set [4] (TQ LD50/ED25, antihepatotoxic effect, LD50 mouse i.p. / ED25 rat p.o., Table XI), more than 75; in data set [4] (TQ LD50/ED50, antihepatotoxic effect, LD50 mouse i.p. / ED50 rat p.o., Table XI), 15. Moreover, the ED50 in data set [2] (setting [14]) was approximately 1.5 mg/kg; in data set [5] (read-out: ED50 antihepatotoxic effect (shortens hexobarbital narcosis by 50%)), 50 mg/kg. Besides, the ED25 in data set [5] was less than 10 mg/kg. For the same compound, the LD50 at 336 h in data set [3] (mouse i.p., Table X) was determined as 750 mg/kg.

On to `O=C(O)CCCN(C(=O)c1cccc(C(F)(F)F)c1)c1cccc2ccccc12` [compound 42], for which the selectivity ratio in data set [1] (setting [13]) is more than 160. For the same compound, the ED50 in data set [2] (setting [14]) was less than 1 mg/kg. In data set [3] (mouse i.p., Table X), this compound registered an LD50 at 336 h of 160 mg/kg.

Values taken from patent US4243678A, “Acylhydrocarbylaminoalkanoic acids, compositions and uses” (Byk Gulden Lomberg Chemische Fabrik GmbH, priority 1977, dated 1981).
